Source: paper PMC4603303, “Activity of Novel Synthetic Peptides against Candida albicans” (Scientific Reports, 2015)
Like-named read-outs stand apart in the source and are kept apart here. Ends that are not written are not given here.

What was measured:
C. albicans SC5314 = experiment: Time killing assay; format: cell-based, Candida albicans
Procedure: A fungal suspension was adjusted to a 0.5 McFarland turbidity standard with cell density of 1 × 10^6 to 5 × 10^6 cells/ml. 100 μL of adjusted yeast suspension was exposed to 900 μL of RPMI medium containing peptide, yielding a starting inoculum of approximately 10^5 cells/ml. The solutions were incubated at 37°C with agitation. At the predetermined time interval of 0, 1, 2, 4 and 6 hours, 10 μL or 30 μL of the samples were removed, serially diluted with phosphate-buffered saline (PBS) and plated on SDA plates to allow colony counts after 24 hours of incubation. Controls for yeast growth and antifungal agents were also performed. The lower limit of accurate and reproducible quantitation was 100 CFU/ml. Results were obtained from three independent experiments.

[1] = tested on: Candida parapsilosis ATCC 22019; experiment: MIC, broth microdilution (CLSI M27-A2); format: cell-based
Procedure: (§1) C. albicans strains SC5314 and ATCC 90028, C. krusei ATCC 6258 and C. parapsilosis ATCC 22019 were used in the study. The strains were stored at −80°C in nutrient broth supplemented with 2.0% glycerol stock. Prior to experimentation, each strain was streaked for single colonies on Sabouraud Dextrose (SDA) agar plates and incubated overnight at 37°C.
(§2) Antifungal activity of the designed peptides was determined according to a standardized broth microdilution method (Clinical and Laboratory Standards Institute (CLSI) document M27-A2). Briefly, the yeast colonies from 24- hour-old cultures of Candida species were picked and resuspended in 5 mL of sterile 0.145 mol/L saline and adjusted to cell density of 1 × 10^6 to 5 × 10^6 cells/ml. The yeast stock suspension was then diluted to obtain a starting inoculum of 5.0 × 10^2 to 2.5 × 10^3 cells/ml. […] The drugs were dissolved in DMSO and prepared to a stock concentration of 25 mg/L and 50 mg/L, respectively. […] 100 μL of standardized yeast suspension was then added to each well. Plates were incubated for 48 hours at 37°C. The minimum inhibitory concentration (MIC) was defined as the lowest concentration that inhibited 90% growth of Candida species. The MICs were determined three times and each time in duplicate.

[2] = tested on: Candida albicans ATCC 90028; experiment: MIC, broth microdilution (CLSI M27-A2); format: cell-based
Procedure: as §1, §2

Candida krusei ATCC 6258 = experiment: MIC, broth microdilution (CLSI M27-A2); format: cell-based
Procedure: as §1, §2

Candida albicans SC 5314 = experiment: MIC, broth microdilution (CLSI M27-A2); format: cell-based
Procedure: as §1, §2

human erythrocytes = experiment: Haemolytic assay; format: cell-based
Procedure: Freshly collected human blood with heparin was centrifuged to remove the buffy coat. The erythrocytes were washed three times with PBS, centrifuged for 10 min at 2000 rpm at 10°C, and resuspended in PBS to 4% (vol/vol). […] PBS and 0.1% Triton X-100 were used as agents to induce 0 and 100% haemolysis, respectively. Plates were incubated for 1 hour at 37°C and centrifuged at 2000 rpm for 10 min. The supernatant (100 μL) was transferred to a 96-well flat-bottomed polystyrene plate, and the release of haemoglobin was monitored by measuring the absorbance at 560 nm using a microplate reader. Results were repeated three times and each time in duplicate. The percentage of haemolysis was calculated using the following formula: [drawing 2] where Ap and A100 represent the absorbance of erythrocytes treated with peptide and 0.1% Triton X-100. A0 is the absorbance of erythrocytes without treatment.

Candida strains = experiment: MIC, broth microdilution, range stated over several Candida strains; format: cell-based, Candida spp.
Procedure: as §1, §2

VK2/E6E7 cell line = experiment: cells
Procedure: (§3) The human normal vaginal epithelial cell line VK2/E6E7 (ATCC® CRL-2616™) and human normal esophagus epithelial cell line Het-1A (ATCC® CRL-2692™) were used for cytotoxicity testing. VK2/E6E7 cell line was grown in Keratinocyte-Serum Free medium (GIBCO-BRL 17005-042) supplemented with 0.1 ng/ml human recombinant EGF, 0.05 mg/ml bovine pituitary extract, and 44.1 mg/L calcium chloride. […] Cell viability was measured by using CellTiter 96® Aqueous Non-Radioactive Cell Proliferation Assay (Promega, USA) and the colourimetric changes were determined at 490 nm using a microplate reader. […] Results were recorded by averaging three repeated experiments and each experiment was performed in duplicate.

Het-1A cell line = experiment: cells
Procedure: as §3

[3] = range against C. albicans and C. krusei

| Substance | % killing (C. albicans SC5314; SC5314, 6 h, 2) [%] | mean log decrease in viable cells (C. albicans SC5314; SC5314, 6 h, 2) [log CFU/mL] | Minimum Inhibitory Concentration (MIC) ([1]; ATCC 22019, 48 h) [µg/mL] | Minimum Inhibitory Concentration (MIC) ([2]; ATCC 90028, 48 h) [µg/mL] | Minimum Inhibitory Concentration (MIC) (Candida krusei ATCC 6258; ATCC 6258, 48 h) [µg/mL] | Minimum Inhibitory Concentration (MIC) (Candida albicans SC 5314; SC 5314, 48 h) [µg/mL] | Haemolytic activity HC10 (human erythrocytes; red cells of human, 1 h) [mg/L] | Haemolytic activity HC50 (human erythrocytes; red cells of human, 1 h) [mg/L] | MIC values, range (Candida strains; 48 h) [µg/mL] | IC50 (VK2/E6E7 cell line; 24 h) [µg/mL] | IC50 (VK2/E6E7 cell line; 48 h) [µg/mL] | IC50 (VK2/E6E7 cell line; 72 h) [µg/mL] | IC50 (Het-1A cell line; 24 h) [µg/mL] | IC50 (Het-1A cell line; 48 h) [µg/mL] | IC50 (Het-1A cell line; 72 h) [µg/mL] | also measured |
| --- | --- | --- | --- | --- | --- | --- | --- | --- | --- | --- | --- | --- | --- | --- | --- | --- |
| GIWKKWIKKWLKKLLKKLWKKG-NH2 [KABT-AMP, reference compound] |  |  |  |  |  |  |  |  |  |  |  |  |  |  |  | % killing (C. albicans SC5314; 2× MIC, within 4 hours): > 99.99%; mean log decrease in viable cells (C. albicans SC5314; 2× MIC, within 4 hours, RPMI, 37°C, mean ± SD of three experiments): 5.4 ± 0.09 log CFU/mL; Minimum Inhibitory Concentration (MIC) ([1]; C. parapsilosis ATCC 22019, RPMI 1640-MOPS, 48 h, 37°C, lowest concentration inhibiting 90% growth, three times in duplicate): 64 µg/mL; Minimum Inhibitory Concentration (MIC) ([2]; C. albicans ATCC 90028, RPMI 1640-MOPS, 48 h, 37°C, lowest concentration inhibiting 90% growth, three times in duplicate): 64 µg/mL; Minimum Inhibitory Concentration (MIC) (Candida krusei ATCC 6258; C. krusei ATCC 6258, RPMI 1640-MOPS, 48 h, 37°C, lowest concentration inhibiting 90% growth, three times in duplicate): 64 µg/mL; Minimum Inhibitory Concentration (MIC) (Candida albicans SC 5314; C. albicans SC 5314, RPMI 1640-MOPS, 48 h, 37°C, lowest concentration inhibiting 90% growth, three times in duplicate): 32 µg/mL; Haemolytic activity HC10 (human erythrocytes; concentration causing 10% haemolysis, 1 hour, 37°C, erythrocyte suspension 4% in PBS, three times in duplicate): 4.67 ± 2.09 mg/L; Haemolytic activity HC50 (human erythrocytes; concentration causing 50% haemolysis, 1 hour, 37°C, erythrocyte suspension 4% in PBS, three times in duplicate): 81.23 ± 8.92 mg/L; MIC values, range (Candida strains; range against four Candida strains (C. albicans and non-albicans species)): 32 to 64 µg/mL |
| GIWKKWIKKWLKVLKNLF-NH2 [KU3] | 99.94 | 3.28 ± 0.30 | 8 | 16 | 16 | 8 | 5.65 ± 0.85 | 55.20 ± 11.90 | 8 to 16 | 4.43 ± 0.39 | 5.32 ± 0.84 | 7.83 ± 1.41 | 4.33 ± 0.52 | 4.62 ± 0.65 | 6.36 ± 1.34 |  |
| GIWKKWIKKWLKKLKNLF-NH2 [KU4] | > 99.99 | 5.55 ± 0.08 | 32 | 64 | 16 | 32 | 49.38 ± 5.14 |  | 16 to 64 | 8.75 ± 1.04 | 10.55 ± 2.33 | 19.46 ± 4.29 | 9.75 ± 1.34 | 10.47 ± 0.50 | 14.53 ± 1.58 | Haemolytic activity HC50 (human erythrocytes): > 256 mg/L |
| GVIKAAKKVVKVLKKLF-NH2 [Upn-lys6] |  |  | 16 | 64 | 32 | 32 | >256 | >256 |  | 9.07 ± 1.92 | 10.04 ± 3.27 | 9.87 ± 1.46 | 7.49 ± 1.77 | 7.92 ± 1.22 | 11.20 ± 0.86 | % killing (C. albicans SC5314; SC5314, 4 h, 2): > 99.99%; mean log decrease in viable cells (C. albicans SC5314; SC5314, 4 h, 2): 5.56 ± 0.07 log CFU/mL; MIC values, range (Candida strains; [3]): 32 to 64 µg/mL |
| GVIKAAKKVVNVLKNLF-NH2 [Upn-lys4] | 99.97 | 4.12 ± 1.36 | 64 | 128 | 64 | 64 | >256 | >256 |  | 15.45 ± 2.64 | 16.55 ± 0.55 | 19.98 ± 1.84 | 14.12 ± 4.35 | 14.71 ± 4.44 | 23.64 ± 2.82 |  |
| GVIDAAKKVVNVLKNLF-NH2 [Uperin 3.6, reference compound] |  |  | 128 | 128 | 64 | 64 |  |  | 64 to 128 | 17.14 ± 4.32 | 23.59 ± 1.18 | 24.69 ± 6.02 | 17.60 ± 2.52 | 17.94 ± 1.96 | 23.23 ± 2.98 | % killing (C. albicans SC5314; SC5314, 4 h, 2): > 99.99%; mean log decrease in viable cells (C. albicans SC5314; SC5314, 4 h, 2): 5.54 ± 0.13 log CFU/mL; Haemolytic activity HC10 (human erythrocytes): > 256 mg/L; Haemolytic activity HC50 (human erythrocytes): > 256 mg/L |
| GIWKKWIKKVVNVLKNLF-NH2 [KU1] | 99.82 | 2.95 ± 0.59 | 16 | 32 | 32 | 16 | 8.07 ± 1.60 | 58.19 ± 2.04 | 16 to 32 | 4.28 ± 0.60 | 4.71 ± 0.22 | 7.84 ± 1.99 | 3.61 ± 0.19 | 4.59 ± 0.26 | 7.27 ± 1.17 |  |
| GVIKAAKKVVKVLKNLF-NH2 [Upn-lys5] | 99.99 | 4.95 ± 1.24 | 32 | 64 | 32 | 32 | >256 | >256 |  | 8.67 ± 2.21 | 10.28 ± 4.53 | 9.12 ± 1.20 | 9.73 ± 1.19 | 9.83 ± 1.40 | 15.73 ± 0.39 | MIC values, range (Candida strains; [3]): 32 to 64 µg/mL |
| GIWKKWIKKWLNVLKNLF-NH2 [KU2] | 99.73 | 2.77 ± 0.54 | 8 | 16 | 16 | 8 | 7.33 ± 0.73 | 57.71 ± 9.80 | 8 to 16 | 5.42 ± 0.49 | 7.01 ± 0.84 | 11.38 ± 1.75 | 5.51 ± 0.44 | 6.03 ± 0.43 | 8.89 ± 1.40 |  |
